Data on 23 sequences can be found in paper PMC10065799, “High-throughput profiling of sequence recognition by tyrosine kinases and SH2 domains using bacterial peptide display” (eLife, 2023).

What all share (assay): pTyr-Var library bacterial peptide display kinase screen (enrichment scores)
The subject of experiment [1] is Fer kinase domain. It is filed as biochemical, mouse. The settings on record: sheet "Fer".
Experiment [2] concerns EPHB1 kinase domain. Format: biochemical, human. The settings on record: for Screen: sheet EPHB1, effect of the variant peptide relative to its reference peptide in the pTyr-Var library screen (enrichment scores); for Screen (variant relative to reference peptide, measured in the pTyr-Var library screen): sheet "EPHB1", variant seq vs reference seq, bacterial peptide display enrichment.

The subject of experiment [3] is EPHB2 kinase domain. Format: biochemical, human. The note with it: sheet EPHB2.
Experiment [4] addresses c-Src kinase domain (Homo sapiens, UniProt P12931). Format: biochemical. The note with it: sheet "Src".
The mark [5] stands for this setting: value of the variant peptide against its reference peptide in the pTyr-Var library screen with Fer.
Setting [6] is: effect of variant peptide relative to its reference peptide in the pTyr-Var library screen (enrichment scores).
The mark [7] stands for this setting: effect of the variant peptide relative to its reference peptide in the pTyr-Var library screen.
[8] abbreviates: variant peptide versus its reference peptide in the pTyr-Var library screen.
Setting [9] is: variant peptide relative to its reference peptide, pTyr-Var library screen enrichment.

Turning to QADVTYVNTQL [MERTK_Y872_I871T], the Screen in experiment [1] (setting [5]) is -3.553; in experiment [2], -1.632.
As to RLEPVYFVAPA [LAMC2_Y250_D247E], the Screen in experiment [3] (setting [6]) is 0.4501; in experiment [4] (setting [7]) it was -0.2779; in experiment [2], 0.4539.
The sequence GFILMYDITNK [RAB3C_Y110_E115K] registered a Screen in experiment [3] (setting [6]) of -0.5126.
As to SAAAIYMVRHP [PMP22_Y117_T118M], the values for the Screen in experiment [3] (setting [6]), in experiment [4] (setting [8]) and in experiment [2] were 1.843, -0.2351 and 2.191, respectively.
Turning to ADARMYGVLPR [PLP1_Y207_W212R], the Screen in experiment [3] (setting [6]) is listed as -2.437; in experiment [4] (setting [8]), -3.205.
For TSIGNYFKPWF [DHCR24_Y299_N294T_YF], the Screen was -0.167 in experiment [3] (setting [6]) and 0.02902 in experiment [2].
Turning to MWGSDYVHLSR [MAP3K4_Y582_Q584H], the results for the Screen in experiment [3] (setting [6]) and in experiment [2] were -2.255 and -1.547, respectively.
KFEDVYVRICL [B3GALNT1_Y269_G271R]: the Screen in experiment [4] (setting [7]) was -2.417; in experiment [1] (setting [5]), -2.092.
Take MGGSLYFSFPD [HIKESHI_Y55_V54L_YF]: the figures for the Screen in experiment [3] (setting [6]), in experiment [4] (setting [7]) and in experiment [2] were 2.441, 0.1907 and 2.816, respectively.
Sequence LIGWRYDDPEV [HSPA9_Y128_R126W] came in with a Screen in experiment [3] (setting [6]) of -0.9592.
TSKLSYLDPRI [TOP1_Y723_N722S]: the Screen in experiment [3] (effect of the variant relative to its reference peptide in the pTyr-Var library screen) is -1.966. Further, in experiment [2], the “Screen (variant relative to reference peptide, measured in the pTyr-Var library screen)” value is -2.938.
Turning to NTADFYDLFGG [PTPN11_Y63_G60A_YF], the Screen in experiment [4] (setting [8]) is listed as -0.001161; in experiment [1] (setting [9]), -0.1929.
In the same order, the values of NTVDFYDLFGG [PTPN11_Y63_G60V_YF] are -0.792 and -0.946.
For PESIMYWKFTT [NTRK3_Y744_R745W], the Screen in experiment [4] (setting [8]) is 2.713; in experiment [1] (setting [5]) it was 1.613.
For KSSDVYVSFDC [SORL1_Y136_Y141C_YF], the figures for the Screen in experiment [4] (setting [8]) and in experiment [1] (setting [9]) were -0.3615 and -2.678, respectively. Moreover, the “Screen (variant relative to reference peptide, measured in the pTyr-Var library screen)” value in experiment [2] is recorded as -0.2812.
In the case of TTEHIYGDKFF [UBA7_Y524_N527K], the figures for the Screen in experiment [4] (setting [8]) and in experiment [1] (setting [9]) were 0.1479 and -2.246, respectively.
Consider QNTGNYFDLFG [PTPN11_Y62_D61N_YF], for which the Screen in experiment [3] (setting [6]) is 0.1444; in experiment [4] (setting [8]), -1.162; in experiment [2] it was 0.2097.
For RCQDLYSARDL [SART1_Y249_R245C], the Screen in experiment [4] (setting [8]) was 2.461; in experiment [1] (setting [9]), 2.483; in experiment [2], 1.546.
Regarding GSESDYIIMPN [SCARB1_Y133_V135I], the Screen in experiment [3] (setting [6]) is recorded as -0.2465. For the same sequence, the “Screen (variant relative to reference peptide, measured in the pTyr-Var library screen)” value in experiment [2] was -0.2975.
With QNTADYFDLFG [PTPN11_Y62_G60A_YF], the Screen in experiment [3] (setting [6]) is -0.5539; in experiment [4] (setting [8]), -1.145; in experiment [2], -0.5569.
With PEAALYGRFTF [FYN_Y440_I445F], the figures for the Screen in experiment [4] (setting [7]) and in experiment [1] (setting [5]) were 0.2008 and 0.7423, respectively.
For the sequence LAIERYVVVSK [RHO_Y136_C140S], in experiment [3] (setting [6]), the Screen came out at 0.1273.
For the sequence DAHFTYSRFPW [LY75_Y888_D884A_YF], the Screen was -0.5554 in experiment [3] (setting [6]), 0.1806 in experiment [4] (setting [7]) and -0.9728 in experiment [2].
